The source of these data is US20110009381A1, “SOLUBILIZED THIAZOLOPYRIDINES” (Sirtis Pharmaceuticals, Inc., priority 2007, published 2011).

This assay addresses T1, SIRT1 (Homo sapiens, UniProt Q96EB6).
T1 sequence (Q96EB6 1-747): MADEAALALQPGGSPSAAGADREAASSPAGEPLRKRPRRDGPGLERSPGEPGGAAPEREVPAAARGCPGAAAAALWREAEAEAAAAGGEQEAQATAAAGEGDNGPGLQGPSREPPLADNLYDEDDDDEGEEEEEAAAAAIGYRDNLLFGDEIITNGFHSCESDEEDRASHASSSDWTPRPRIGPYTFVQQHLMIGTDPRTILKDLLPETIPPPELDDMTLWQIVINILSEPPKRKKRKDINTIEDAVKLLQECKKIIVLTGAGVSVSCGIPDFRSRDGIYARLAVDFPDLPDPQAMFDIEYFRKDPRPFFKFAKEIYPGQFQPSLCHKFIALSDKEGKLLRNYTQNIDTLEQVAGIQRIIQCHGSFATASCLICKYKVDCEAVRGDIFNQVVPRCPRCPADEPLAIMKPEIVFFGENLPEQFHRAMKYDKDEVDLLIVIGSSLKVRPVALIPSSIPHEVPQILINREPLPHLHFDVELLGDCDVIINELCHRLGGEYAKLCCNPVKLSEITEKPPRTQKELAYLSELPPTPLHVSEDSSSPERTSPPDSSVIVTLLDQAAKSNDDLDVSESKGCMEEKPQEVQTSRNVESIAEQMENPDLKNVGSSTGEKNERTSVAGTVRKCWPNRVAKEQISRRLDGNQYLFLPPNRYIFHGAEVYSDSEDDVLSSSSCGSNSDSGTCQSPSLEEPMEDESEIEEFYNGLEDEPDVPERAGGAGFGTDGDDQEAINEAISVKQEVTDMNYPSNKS
Briefly: Mass spectrometry based assay to identify modulators of SIRT1 activity (deacetylation of p53-based acetylated peptide substrate). Format: biochemical. Particulars: 10 nM SIRT1, 0.5 μM peptide substrate, 120 μM βNAD+, 25 minutes at 25° C.; for EC1.5: SIRT1 activation. The text has this:
A mass spectrometry based assay was used to identify modulators of SIRT1 activity. The mass spectrometry based assay utilizes a peptide having 20 amino acid residues as follows: Ac-EE-K(biotin)-GQSTSSHSK(Ac)NleSTEG-K(5TMR)-EE-NH2 (SEQ ID NO: 1) wherein K(Ac) is an acetylated lysine residue and Nle is a norleucine. The peptide is labeled with the fluorophore 5TMR (excitation 540 nm/emission 580 nm) at the C-terminus. The sequence of the peptide substrate is based on p53 with several modifications. In addition, the methionine residue naturally present in the sequence was replaced with the norleucine because the methionine may be susceptible to oxidation during synthesis and purification.
The mass spectrometry assay is conducted as follows: 0.5 μM peptide substrate and 120 μM βNAD^+ is incubated with 10 nM SIRT1 for 25 minutes at 25° C. in a reaction buffer (50 mM Tris-acetate pH 8, 137 mM NaCl, 2.7 mM KCl, 1 mM MgCl2, 5 mM DTT, 0.05% BSA). Test compounds may be added to the reaction as described above. The SirT1 gene is cloned into a T7-promoter containing vector and transformed into BL21(DE3). After the 25 minute incubation with SIRT1, 10 μL of 10% formic acid is added to stop the reaction. Reactions are sealed and frozen for later mass spec analysis. Determination of the mass of the substrate peptide allows for precise determination of the degree of acetylation (i.e. starting material) as compared to deacetylated peptide (product).
A control for inhibition of sirtuin activity is conducted by adding 1 μL of 500 mM nicotinamide as a negative control at the start of the reaction (e.g., permits determination of maximum sirtuin inhibition). A control for activation of sirtuin activity is conducted using 10 nM of sirtuin protein, with 1 μL of DMSO in place of compound, to determine the amount of deacetylation of the substrate at a given timepoint within the linear range of the assay. This timepoint is the same as that used for test compounds and, within the linear range, the endpoint represents a change in velocity.
For the above assay, SIRT1 protein was expressed and purified as follows. The SirT1 gene was cloned into a T7-promoter containing vector and transformed into BL21(DE3). The protein was expressed by induction with 1 mM IPTG as an N-terminal His-tag fusion protein at 18° C. overnight and harvested at 30,000×g. Cells were lysed with lysozyme in lysis buffer (50 mM Tris-HCl, 2 mM Tris[2-carboxyethyl]phosphine (TCEP), 10 μM ZnCl2, 200 mM NaCl) and further treated with sonication for 10 min for complete lysis. The protein was purified over a Ni-NTA column (Amersham) and fractions containing pure protein were pooled, concentrated and run over a sizing column (Sephadex S200 26/60 global). The peak containing soluble protein was collected and run on an Ion-exchange column (MonoQ). Gradient elution (200 mM-500 mM NaCl) yielded pure protein. This protein was concentrated and dialyzed against dialysis buffer (20 mM Tris-HCl, 2 mM TCEP) overnight. The protein was aliquoted and frozen at −80° C. until further use.
Sirtuin modulating compounds that activated SIRT1 were identified using the assay described above and are shown below in Table 1. The EC1-5 values for the activating compounds are represented by A′ (EC1.5<250 nM), A (EC1.5≧250 nM and ≦1 uM), B (EC1.5>1 and ≦10 uM), or C (EC1.5>10 uM). The percent maximum fold activation is represented by A (Fold activation≧300%), B (Fold Activation≧150% and <300%), or C (Fold Activation<150%).

Consider `CC(C)NCCNc1cc(C(=O)Nc2ccccc2-c2nc3cccnc3s2)nc(-c2ccccc2)n1` [Compound 52], for which the “FOLD ACT. (percent maximum fold activation)” value is listed as “A (Fold activation≧300%)”; the EC1.5 entry is “A (EC1.5≧250 nM and ≦1 uM)”.

For `O=C(Nc1ccccc1-c1nc2cccnc2s1)c1cc(NC2CCCCC2)nc(-c2ccccc2)n1` [Compound 63], the “FOLD ACT. (percent maximum fold activation)” value is “C (Fold Activation<150%)” and the EC1.5 result was “C (EC1.5>10 uM)”.

As to `CCN(CC)CCCOc1cc(C(=O)Nc2ccccc2-c2nc3cccnc3s2)nc(-c2ccccc2)n1` [Compound 93], the “FOLD ACT. (percent maximum fold activation)” value is “A (Fold activation≧300%)”; the EC1.5 result was “A (EC1.5≧250 nM and ≦1 uM)”.

As for `O=C(O)CCNc1cc(C(=O)Nc2ccccc2-c2nc3cccnc3s2)nc(-c2ccccc2)n1` [Compound 44], the “FOLD ACT. (percent maximum fold activation)” value was “A (Fold activation≧300%)”; the EC1.5 entry was “A (EC1.5≧250 nM and ≦1 uM)”.

For the molecule `O=C(Nc1ccccc1-c1nc2cccnc2s1)c1cc(OCCN2CCNCC2)cc(-c2ccccc2)n1` [Compound 14], the “FOLD ACT. (percent maximum fold activation)” value is “A (Fold activation≧300%)” and the EC1.5 entry is given as “A′ (EC1.5<250 nM)”.

Consider `CNc1cc(C(=O)Nc2ccccc2-c2nc3cccnc3s2)nc(-c2ccccc2)n1` [Compound 64], for which the “FOLD ACT. (percent maximum fold activation)” value is listed as “C (Fold Activation<150%)” and the EC1.5 result is given as “C (EC1.5>10 uM)”.

`O=C(Nc1ccccc1-c1nc2ccncc2s1)c1cc(NCCN2CCOCC2)nc(-c2ccccc2)n1` [Compound 30]: the “FOLD ACT. (percent maximum fold activation)” value was “A (Fold activation≧300%)”; the EC1.5 result was “A (EC1.5≧250 nM and ≦1 uM)”.

Regarding `CCN(CCN(C)C)c1cc(C(=O)Nc2ccccc2-c2nc3cccnc3s2)nc(-c2ccccc2)n1` [Compound 146], the “FOLD ACT. (percent maximum fold activation)” value is given as “A (Fold activation≧300%)” and the EC1.5 result is on record as “A′ (EC1.5<250 nM)”.

On to `COCCN1CCN(c2cc(C(=O)Nc3ccccc3-c3nc4cccnc4s3)nc(Cl)n2)CC1` [Compound 4], for which the “FOLD ACT. (percent maximum fold activation)” value was “A (Fold activation≧300%)”; the EC1.5 entry was “A (EC1.5≧250 nM and ≦1 uM)”.

Regarding `CCN1CCC(Nc2cc(C(=O)Nc3ccccc3-c3nc4cccnc4s3)nc(-c3ccccc3)n2)CC1` [Compound 100], the “FOLD ACT. (percent maximum fold activation)” value is “A (Fold activation≧300%)” and the EC1.5 result is “A′ (EC1.5<250 nM)”.

For `CN(C)CCCNc1cc(C(=O)Nc2ccccc2-c2nc3cccnc3s2)nc(-c2ccccc2)n1` [Compound 88], the “FOLD ACT. (percent maximum fold activation)” value is recorded as “A (Fold activation≧300%)”; the EC1.5 result was “A (EC1.5≧250 nM and ≦1 uM)”.

Consider `O=C(Nc1ccccc1-c1nc2cccnc2s1)c1cc(N2CCNCC2)nc(-c2ccccc2)n1` [Compound 1], for which the “FOLD ACT. (percent maximum fold activation)” value was “A (Fold activation≧300%)” and the EC1.5 entry is on record as “A′ (EC1.5<250 nM)”.

`O=C(Nc1ccccc1-c1nc2cccnc2s1)c1cc(OC[C@@H](O)CO)cc(-c2ccccc2)n1` [Compound 127]: the “FOLD ACT. (percent maximum fold activation)” value is listed as “A (Fold activation≧300%)”; the EC1.5 entry is “A (EC1.5≧250 nM and ≦1 uM)”.

With `CN1CCC(Nc2cc(C(=O)Nc3ccccc3-c3nc4cccnc4s3)nc(-c3ccccc3)n2)CC1` [Compound 99], the “FOLD ACT. (percent maximum fold activation)” value is on record as “A (Fold activation≧300%)” and the EC1.5 entry is reported as “A′ (EC1.5<250 nM)”.

As to `COCCNc1cc(C(=O)Nc2ccccc2-c2nc3cccnc3s2)nc(-c2ccccc2)n1` [Compound 15], the “FOLD ACT. (percent maximum fold activation)” value is on record as “A (Fold activation≧300%)”; the EC1.5 entry is “A (EC1.5≧250 nM and ≦1 uM)”.

As for `O=C(Nc1ccccc1-c1nc2cccnc2s1)c1cc(NC(CO)CO)cc(-c2ccccc2)n1` [Compound 128], the “FOLD ACT. (percent maximum fold activation)” value is given as “A (Fold activation≧300%)” and the EC1.5 entry is listed as “A′ (EC1.5<250 nM)”.

As for `NCCNc1cc(C(=O)Nc2ccccc2-c2nc3cccnc3s2)nc(-c2ccccc2)n1` [Compound 83], the “FOLD ACT. (percent maximum fold activation)” value was “A (Fold activation≧300%)”; the EC1.5 entry was “A (EC1.5≧250 nM and ≦1 uM)”.

Consider `Cc1cccc(-c2nc(C(=O)Nc3ccccc3-c3nc4cccnc4s3)cc(N3CCN(C(C)C)CC3)n2)c1` [Compound 138], for which the “FOLD ACT. (percent maximum fold activation)” value is reported as “A (Fold activation≧300%)” and the EC1.5 entry is recorded as “A′ (EC1.5<250 nM)”.

With `O=C(Nc1ccccc1-c1nc2cccnc2s1)c1cc(NC2CCCNC2)nc(-c2ccccc2)n1` (stereo not drawn) [Compound 72], the “FOLD ACT. (percent maximum fold activation)” value was “A (Fold activation≧300%)” and the EC1.5 result is recorded as “A′ (EC1.5<250 nM)”.

As to `O=C(Nc1ccccc1-c1nc2cccnc2s1)c1cc(NCc2ccccc2)nc(-c2ccccc2)n1` [Compound 54], the “FOLD ACT. (percent maximum fold activation)” value is listed as “C (Fold Activation<150%)” and the EC1.5 result was “C (EC1.5>10 uM)”.

As to `COCCN1CCN(c2cc(C(=O)Nc3ccccc3-c3nc4cccnc4s3)nc(-c3ccccc3)n2)CC1` [Compound 3], the “FOLD ACT. (percent maximum fold activation)” value is listed as “A (Fold activation≧300%)” and the EC1.5 result is reported as “A′ (EC1.5<250 nM)”.

`O=C(Nc1ccccc1-c1nc2cccnc2s1)c1cc(OCCCO)nc(-c2ccccc2)n1` [Compound 102]: the “FOLD ACT. (percent maximum fold activation)” value is “B (Fold Activation≧150% and <300%)”; the EC1.5 entry is “A (EC1.5≧250 nM and ≦1 uM)”.

For `CC(C)CN1CCC(Nc2cc(C(=O)Nc3ccccc3-c3nc4cccnc4s3)nc(-c3ccccc3)n2)CC1` [Compound 140], the “FOLD ACT. (percent maximum fold activation)” value is given as “A (Fold activation≧300%)” and the EC1.5 result is reported as “A′ (EC1.5<250 nM)”.

On to `CCN(CC)CCCNc1cc(C(=O)Nc2ccccc2-c2nc3cccnc3s2)nc(-c2ccccc2)n1` [Compound 81], for which the “FOLD ACT. (percent maximum fold activation)” value is listed as “A (Fold activation≧300%)” and the EC1.5 entry is “A′ (EC1.5<250 nM)”.

Turning to `CN(C)CCNc1cc(C(=O)Nc2ccccc2-c2nc3cccnc3s2)nc(-c2ccccc2)n1` [Compound 9], the “FOLD ACT. (percent maximum fold activation)” value is listed as “A (Fold activation≧300%)” and the EC1.5 result is reported as “A′ (EC1.5<250 nM)”.

On to `O=C(Nc1ccccc1-c1nc2cccnc2s1)c1cc(NCCO)nc(-c2ccccc2)n1` [Compound 39], for which the “FOLD ACT. (percent maximum fold activation)” value is recorded as “A (Fold activation≧300%)” and the EC1.5 entry is listed as “A′ (EC1.5<250 nM)”.

On to `CNCCNc1cc(C(=O)Nc2ccccc2-c2nc3cccnc3s2)nc(-c2ccccc2)n1` [Compound 121], for which the “FOLD ACT. (percent maximum fold activation)” value was “A (Fold activation≧300%)” and the EC1.5 result was “A′ (EC1.5<250 nM)”.
